Key:
[1] = system: HIV-1IIIB; experiment: HIV-1 antiviral assay in CEM-SS cells (MTS readout)
[2] = system: IFNγ spleen cells; experiment: Th1/Th2 cytokine profiling assay: IFNγ; type: cell-based, Balb/c mice; settings: 10 micrograms per ml; Ovalbumin restimulation; 72 hours
From the text: (§1) The Balb/c mice (originated in 1923, it is a popular strain and is used in many different research disciplines. Also classified as an inbred from the production of 20 or more successive brother-sister matings, the Balb/c mouse is albino and small in size) were immunized on Days 1, 15, and 29 with Ovalbumin (Ovalbumin is the main protein found in egg white, commonly used to stimulate an immunological reaction in test animals) in PBS (5 micrograms/injection). On day 50, spleens of the mice were harvested (3 weeks after last boost with Ovalbumin). […] Thereafter, additional Ovalbumin was added to the cells at 10 micrograms/ml for in vitro restimulation of the cells. 72 hours later, cell supernatants were harvested and assayed using the Becton Dickinson Mouse Th1/Th2 Cytokine CBA Kit. This kit can be used to measure Interleukin-2 (IL-2), Interleukin-4 (IL-4),
(§2) Interleukin-5 (IL-5), Interferon-γ (IFN-γ), and Tumor Necrosis Factor-α (TNF-α) protein levels in a single sample. The kit performance has been optimized for analysis of physiologically relevant concentrations (pg/ml levels) of specific cytokine proteins in tissue culture supernatants and serum samples.

[3] = system: HCMV strain AD169; experiment: HCMV plaque formation assay in MRC-5 cells; settings: for inhibition of HCMV plaque formation as compared to the virus control experiment: 10 micrograms per ml, 7-10 days
[4] = system: HUVEC; experiment: Endothelial tube formation assay; settings: 10 micrograms per ml, 20 hours, combination peptide 1:peptide 2 0.95 mole:1.05 mole
Description: The endothelial tube formation assay is based on the ability of endothelial cells to form three-dimensional capillary-like tubular structures when cultured on a gel of basement membrane extract. […] Pre-labeled HUVEC with Calcein AM were seeded in a 96-well culture plate coated with extracellular metrix (Chemicon international Cat. ECM625) and treated with test peptides—10 micrograms per ml—in full growth medium. Positive control was vehicle only. The endothelial cells were allowed to form tubes foe 20 hours and were then examined under an inverted fluorescent microscope. Duplicate wells for each treatment were photographed and quantitatevily analyzed for an average tubule length using image analysis software ImageProPlus. Raw data were expressed as average tubule lengths in pixels ±standard deviation. Statistic p values were computed using the Student's t-test.

[5] = system: IL-4 spleen cells; experiment: Th1/Th2 cytokine profiling assay: IL-4; type: cell-based, Balb/c mice; settings: 10 micrograms per ml; Ovalbumin restimulation; 72 hours
From the text: as §1, §2

[6] = system: Primary Human endothelial cells (HUVEC); experiment: Endothelial cell migration assay; settings: 10 micrograms per ml, 22 hours
Description: Primary Human endothelial cells (HUVEC) were seeded in insert chambers with 3 micrometer pore size of multi-transwell plate for 6 hours at 37° C. in Endothelial Cell Basal Medium (EBM) supplemented with 0.1% bovine serum albumin. Thereafter, designated concentration of testing peptides—10 micrograms per ml—was added in duplicate wells. The endothelia were allowed to migrate for 22 hours at 37° C., then, migrated cells were fixed and stained with Hoechst 33342 dye. Images of 3 fields per insert were taken and the number of migrated cells per field were quantified using the ImageProPlus software. Data were analyzed for the average number of the migrated cells and standard deviation of six data points for each treatment condition. […] Statistic p values were computed using the Student's t-test.

[7] = system: hepatitis B virus (HBV) ayw strain; experiment: HBV experimental assay system (HepG2-2.2.15, TaqMan PCR of secreted HBV DNA); type: cell-based; settings: 10 micrograms per ml, six days
[8] = system: TNF-a spleen cells; experiment: Th1/Th2 cytokine profiling assay: TNF-a; type: cell-based, Balb/c mice; settings: 10 micrograms per ml; Ovalbumin restimulation; 72 hours
From the text: as §1, §2

[9] = system: IL-5 spleen cells; experiment: Th1/Th2 cytokine profiling assay: IL-5; type: cell-based, Balb/c mice; settings: 10 micrograms per ml; Ovalbumin restimulation; 72 hours
From the text: as §1, §2

[10] = system: IL-2 spleen cells; experiment: Th1/Th2 cytokine profiling assay: IL-2; type: cell-based, Balb/c mice; settings: 10 micrograms per ml; Ovalbumin restimulation; 72 hours
From the text: as §1, §2

| Molecule | antiviral activity of positive control compounds (HIV-1) [1] | IFNγ spleen cells; TH1 response (% of control) [2] | inhibition of HCMV plaque formation as compared to the virus control experiment [3] | inhibition of the tube formation of endothelial cells [4] [%] | IL-4 spleen cells; TH2 response (% of control) [5] | inhibition of the migration of human endothelial cells [6] [%] | inhibition of HBV replication as compared to the virus control infection [7] [%] | TNF-a spleen cells; TH1 response (% of control) [8] | IL-5 spleen cells; TH2 response (% of control) [9] | IL-2 spleen cells (% of control) [10] | antiviral activity of positive control compound (HCMV) ([3]; positive control) |
| --- | --- | --- | --- | --- | --- | --- | --- | --- | --- | --- | --- |
| CC(C)(C)NC(=O)[C@@H]1CN(Cc2cccnc2)CCN1C[C@@H](O)C[C@@H](Cc1ccccc1)C(=O)N[C@H]1c2ccccc2C[C@H]1O [indinavir] | expected levels of antiviral activity | – | – | – | – | – | – | – | – | – | – |
| Gly-Pen-Gly-Arg-Gly-Asp-Ser-Pro-Cys-Ala-OH [peptide 2] | – | 77.3 % of control | did not inhibit | 22 | 117.2 % of control | 51 | 23.9 | 117.6 % of control | 55.0 % of control | 110.7 % of control | – |
| Pyr-Gly-Pro-Trp-Leu-Glu-Glu-Glu-Glu-Glu-Ala-Tyr-Gly-Trp-Met-Asp-Phe-NH2 [peptide 1] | – | 52.4 % of control | did not inhibit | 35 | 61.5 % of control | 30 | 17.4 | 106.3 % of control | 61.2 % of control | 101.6 % of control | – |
| Cc1cn([C@H]2C[C@H](N=[N+]=[N-])[C@@H](CO)O2)c(=O)[nH]c1=O [AZT] | expected levels of antiviral activity | – | – | – | – | – | – | – | – | – | – |
| Nc1nc(O)c2ncn(COC(CO)CO)c2n1 [Ganciclovir, reference compound] | – | – | – | – | – | – | – | – | – | – | expected levels of antiviral activity |

From patent US20100210554A1, “THERAPEUTIC USES OF GASTRIN- 1 AND G- PEN-GRGDSPCA” (priority 2007, published 2010)
